Activity calls are given as the source filed them.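 The calls were made as follows: active = AC50 no higher than twice the top valid tested dose, with signal falling as dose rises; inconclusive = flat fit with partial inhibition, or a poor-quality fit; inactive = the rest, plus effects in the rising direction.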
molecular target: Kelch-like ECH-associated protein 1 (Homo sapiens) (UniProt Q14145); assay: disruptors of Keap1/Nrf2 protein interaction – biochemical, fluorescence polarization, dry powder, set 3, dose response (AID 651806); conditions: Keap1 Kelch/FITC-Nrf2 peptide fluorescence polarization
Sequence (Q14145 whole entry, looked up): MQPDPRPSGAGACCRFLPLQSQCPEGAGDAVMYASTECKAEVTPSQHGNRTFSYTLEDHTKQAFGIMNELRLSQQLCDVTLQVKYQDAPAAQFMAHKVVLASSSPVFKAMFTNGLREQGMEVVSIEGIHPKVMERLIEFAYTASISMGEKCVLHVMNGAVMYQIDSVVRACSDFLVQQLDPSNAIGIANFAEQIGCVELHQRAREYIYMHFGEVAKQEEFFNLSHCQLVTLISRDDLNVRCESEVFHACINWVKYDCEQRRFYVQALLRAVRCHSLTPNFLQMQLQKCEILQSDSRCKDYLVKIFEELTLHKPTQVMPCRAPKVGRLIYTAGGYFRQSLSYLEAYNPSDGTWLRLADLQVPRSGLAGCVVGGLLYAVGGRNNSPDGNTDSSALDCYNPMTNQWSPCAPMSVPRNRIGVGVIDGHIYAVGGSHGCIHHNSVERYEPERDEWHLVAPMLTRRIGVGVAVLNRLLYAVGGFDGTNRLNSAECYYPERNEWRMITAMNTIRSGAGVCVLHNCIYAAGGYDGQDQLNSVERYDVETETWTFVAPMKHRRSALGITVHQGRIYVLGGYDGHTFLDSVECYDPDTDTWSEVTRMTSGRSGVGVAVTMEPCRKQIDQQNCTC

Row | Structure (SMILES) | AC50
1 | O=C(O)[C@H]1CCCC[C@H]1C(=O)N1CCC2=C(CCCC2)C1CN1C(=O)c2ccccc2C1=O (stereo not given in full) | > 100 µM (inactive)
2 | CC(=O)Nc1cc(NS(=O)(=O)c2c(C)cc(C)cc2C)c2ccccc2c1O | > 100 µM (inactive)
3 | O=C(O)C1CCCCC1C(=O)N1CCc2ccccc2C1CN1C(=O)c2ccccc2S1(=O)=O (stereo not given) | > 100 µM (inactive)
4 | Cc1ccc(S(=O)(=O)Nc2cc(C(C(=O)OC(C)C)C(=O)C(F)(F)F)c(O)c3ccccc23)cc1 (stereo not given) | > 100 µM (inactive)
5 | Cc1ccccc1S(=O)(=O)Nc1cc(C(C(=O)OC(C)C)C(=O)C(F)(F)F)c(O)c2ccccc12 (stereo not given) | > 100 µM (inactive)
6 | Cc1cc(C)c(S(=O)(=O)Nc2cc(C(C(=O)OC(C)C)C(=O)C(F)(F)F)c(O)c3ccccc23)c(C)c1 (stereo not given) | 14.7 µM
7 | Cc1ccc(S(=O)(=O)NC(=O)[C@@H]2c3ccccc3CCN2C(=O)[C@@H]2CCCC[C@@H]2C(=O)O)cc1 | > 100 µM (inactive)
8 | CC(C)OC(=O)C(C(=O)C(F)(F)F)c1cc(NS(=O)(=O)c2ccccc2)c2ccccc2c1O (stereo not given) | > 100 µM (inactive)
9 | O=C(O)C1CCCCC1C(=O)N1CCc2ccccc2C1CN1C(=O)Cc2ccccc2C1=O (stereo not given) | > 100 µM (inactive)

same assay, conditions: Keap1 Kelch/FITC-Nrf2 peptide fluorescence polarization; at 12 µM (top of the series)

Row | Structure (SMILES) | activity change, negative = inhibition
10 | O=C1c2ccccc2C(=O)N1CC1c2ccccc2CCN1C(=O)Cc1ccccc1 (stereo not given) | inactive

same assay, conditions: Keap1 Kelch/FITC-Nrf2 peptide fluorescence polarization; at 50 µM (top of the series)

Row | Structure (SMILES) | activity change, negative = inhibition
11 | O=C(O)[C@H]1CCCC[C@H]1C(=O)N1CCC2=C(CCCC2)C1CN1C(=O)c2ccccc2C1=O (stereo not given in full) | inactive
12 | C[C@H](NC(=O)C1CCCC[C@H]1C(=O)O)c1ccccc1 (mixture of isomers) | inactive
13 | COC(=O)[C@H]1CCCC[C@H]1C(=O)N1CCc2ccccc2[C@H]1CN1C(=O)c2ccccc2C1=O | inactive
14 | COC(=O)[C@@H]1CCCC[C@@H]1C(=O)N1CCc2ccccc2[C@H]1CN1C(=O)c2ccccc2C1=O | inactive
15 | O=C(O)[C@H]1CCCC[C@H]1C(=O)N1CCc2ccccc2[C@H]1CNS(=O)(=O)c1ccccc1 | inactive
16 | O=C(O)[C@H]1CCCC[C@H]1C(=O)NC(CN1C(=O)c2ccccc2C1=O)c1ccccc1 (stereo not given in full) | inactive
17 | Cc1ccc(S(=O)(=O)NC2=CC(=N[C@@H](C)C(=O)OC(C)(C)C)C(=O)c3ccccc32)c(C)c1 | inactive
18 | O=C1c2ccccc2C(=O)N1C[C@H]1NCCc2ccccc21 | inactive
19 | CC(C)CNc1nc(NS(=O)(=O)c2ccccc2)c2ccccc2n1 | inactive
20 | O=C1c2ccccc2C(=O)N1C[C@@H]1c2ccccc2CCN1C(=O)OCc1ccccc1 | inactive
21 | CCOC(=O)Cc1nc(NS(=O)(=O)c2c(C)cc(C)cc2C)c2ccccc2n1 | inactive
22 | O=C1c2ccccc2C(=O)N1CC1=NCCc2ccccc21 | inactive
23 | O=C(O)[C@H]1CCCC[C@H]1C(=O)N1CCc2ccccc2C1 (racemic) | inactive
24 | O=C(Cc1ccccc1)NC[C@@H]1c2ccccc2CCN1C(=O)[C@@H]1CCCC[C@@H]1C(=O)O | inactive
25 | Cc1ccc(S(=O)(=O)NC[C@@H]2c3ccccc3CCN2C(=O)[C@@H]2CCCC[C@@H]2C(=O)O)c(C)c1 | inactive
26 | COC(=O)C(C(=O)OC)c1cc(NS(=O)(=O)c2c(C)cc(C)cc2C)c2ccccc2c1O | inactive
27 | C[C@@H](NC(=O)C1CCCC[C@H]1C(=O)O)c1ccccc1 (mixture of isomers) | inactive
28 | O=C(Oc1cc(CN2C(=O)c3ccccc3C2=O)c2ccccc2[n+]1[O-])c1cccc(Cl)c1 | inactive
29 | O=C(O)C1CCCCC1C(=O)N1CCCCC1CN1C(=O)c2ccccc2C1=O (stereo not given) | inactive
30 | Cc1ccc(S(=O)(=O)NNc2nc(NCC(N)=O)nc3ccccc23)cc1 | inactive

Row | Structure (SMILES) | activity change, negative = inhibition
31 | Cc1ccc(S(=O)(=O)NNc2nc(C(C(=O)OC(C)C)C(=O)C(F)(F)F)nc3ccccc23)cc1 (stereo not given) | inactive
32 | O=C(O)C1CCCCC1C(=O)N1CCc2ccccc2[C@H]1C(=O)NCCc1ccccc1 (stereo not given in full) | inactive
33 | O=C(O)C1CCCCC1C(=O)N1CCc2ccccc2[C@H]1C(=O)NC12CC3CC(CC(C3)C1)C2 (stereo not given in full) | inactive
34 | O=C(O)/C=C\C(=O)N1CCc2ccccc2C1CN1C(=O)c2ccccc2C1=O (stereo not given) | inactive
35 | NC(=O)[C@H]1CCCC[C@H]1C(=O)N1CCc2ccccc2[C@H]1CN1C(=O)c2ccccc2C1=O | inactive
36 | CCOC(=O)C(C(=O)OCC)c1nc(NS(=O)(=O)c2c(C)cc(C)cc2C)c2ccccc2n1 | inactive
37 | COC(=O)[C@@H]1CCCC[C@@H]1C(=O)N1CCc2ccccc2[C@@H]1CN1C(=O)c2ccccc2C1=O | inactive
38 | O=C(O)CCCC(=O)N1CCc2ccccc2C1CN1C(=O)c2ccccc2C1=O (stereo not given) | inactive
39 | O=C(O)C1CCCCC1C(=O)Nc1ccccc1CN1C(=O)c2ccccc2C1=O (stereo not given) | inactive
40 | O=C(NC[C@@H]1c2ccccc2CCN1C(=O)[C@@H]1CCCC[C@@H]1C(=O)O)c1ccccc1CO | inactive
41 | O=C(O)CC(=O)N1CCc2ccccc2C1CN1C(=O)c2ccccc2C1=O (stereo not given) | inactive
42 | NC(=O)c1ccccc1C(=O)NC[C@@H]1c2ccccc2CCN1C(=O)[C@@H]1CCCC[C@@H]1C(=O)O | inactive
43 | O=C(NCCCN1CCOCC1)c1ccccc1C(=O)NC[C@@H]1c2ccccc2CCN1C(=O)C1CCCCC1C(=O)O (stereo not given in full) | inactive
44 | O=C(O)[C@H]1CCCC[C@H]1C(=O)N1CCc2ccccc2C1CCN1C(=O)c2ccccc2C1=O (stereo not given in full) | inactive
45 | Cc1ccc(S(=O)(=O)NC(=O)[C@@H]2c3ccccc3CCN2C(=O)[C@@H]2CCCC[C@@H]2C(=O)O)cc1 | inactive
46 | O=C(O)C1CCCCC1C(=O)N1CCc2ccccc2C1CN1C(=O)[C@H]2CCCC[C@H]2C1=O (stereo not given in full) | inactive
47 | Cc1cc(C)c(S(=O)(=O)Nc2cc(C(C(=O)OCc3ccccc3)C(=O)OCc3ccccc3)c(O)c3ccccc23)c(C)c1 | inactive
48 | O=C(O)[C@H]1CCCC[C@H]1C(=O)N1CCc2ccccc2[C@H]1CNc1nc(Cl)nc2ccccc12 | inactive
49 | CCOC(=O)C(C(=O)OCC)c1cc(CN2C(=O)c3ccccc3C2=O)c2ccccc2n1 | inactive
50 | Cc1ccc(S(=O)(=O)NNc2nc(N3CC(O)CC3C(=O)O)nc3ccccc23)cc1 (stereo not given) | inactive

Row | Structure (SMILES) | activity change, negative = inhibition
51 | Cc1cc(C)c(S(=O)(=O)Nc2nc(C(C(=O)OC(C)C)C(=O)C(F)(F)F)nc3ccccc23)c(C)c1 (stereo not given) | inactive
52 | O=C(O)C1CCCCC1C(=O)N1CCc2ccccc2C1c1ccccc1 (stereo not given) | inactive
53 | COc1ccc(CCN=C2C=C(NS(=O)(=O)c3c(C)cc(C)cc3C)c3ccccc3C2=O)cc1 | inactive
54 | O=C(NC[C@@H]1c2ccccc2CCN1C(=O)[C@@H]1CCCC[C@@H]1C(=O)O)c1ccccc1 | inactive
55 | O=C(NC[C@@H]1c2ccccc2CCN1C(=O)[C@@H]1CCCC[C@@H]1C(=O)O)OCC1c2ccccc2-c2ccccc21 | inactive
56 | O=S(=O)(Nc1nc(NCC2CCCCC2)nc2ccccc12)c1ccccc1 | inactive
57 | COC(=O)C1CCCCC1C(=O)N1CCc2ccccc2C1CN1C(=O)c2ccccc2C1=O (stereo not given) | inactive
58 | O=C(O)[C@@H]1CCCN1C(=O)N1CCc2ccccc2[C@H]1CN1C(=O)c2ccccc2C1=O | inactive
59 | O=C(NC[C@@H]1c2ccccc2CCN1C(=O)[C@@H]1CCCC[C@@H]1C(=O)O)c1ccc(CN2CCOCC2)cc1 | inactive
60 | O=C(O)c1ccccc1C(=O)NC[C@@H]1c2ccccc2CCN1C(=O)[C@@H]1CCCC[C@@H]1C(=O)O | inactive
61 | COC(=O)CNc1nc(NS(=O)(=O)c2c(C)cc(C)cc2C)c2ccccc2n1 | inactive
62 | O=C(O)[C@H]1C2C=CC(C2)[C@H]1C(=O)N1CCc2ccccc2C1CN1C(=O)c2ccccc2C1=O (stereo not given in full) | inactive
63 | O=C(O)c1ccccc1C(=O)N1CCc2ccccc2C1CN1C(=O)c2ccccc2C1=O (stereo not given) | inactive
64 | Cc1cc(C)c(S(=O)(=O)Nc2ncnc3ccccc23)c(C)c1 | inactive
65 | CCOC(=O)C(C(=O)OCC)c1cc(CNS(=O)(=O)c2ccc(C)cc2C)c2ccccc2n1 | inactive
66 | O=C1c2ccccc2C(=O)N1C[C@@H]1c2ccccc2CCN1C(=O)C1CCCCC1 | inactive
67 | COc1ccccc1CCNC(=O)[C@@H]1c2ccccc2CCN1C(=O)C1CCCCC1C(=O)O (stereo not given in full) | inactive
68 | O=C(NCCc1ccccc1)c1ccccc1C(=O)NC[C@@H]1c2ccccc2CCN1C(=O)C1CCCCC1C(=O)O (stereo not given in full) | inactive
69 | Cc1cc(C)c(S(=O)(=O)Nc2nc(N(C)C)nc3ccccc23)c(C)c1 | inactive
70 | C=CC(=O)NC[C@@H]1c2ccccc2CCN1C(=O)[C@@H]1CCCC[C@@H]1C(=O)O | inactive
